Test results reported in patent US20150309042A1, “FLUOROGENIC DENDRIMER REPORTERS AND RELATED METHODS OF USE” (The Regents of the University of Michigan, priority 2013, published 2015).

How the values were obtained:
[1] = 'click-on' reaction with a representative alkyne-derivatized molecule, fluorescence emission measurement; format: physicochemical; conditions: azidocoumarin free vs. attached to the dendrimer
Experimental: The fluorogenic properties of the small molecule and dendrimer coumarin reporters were first evaluated by performing the ‘click’ reaction with a representative alkyne-derivatized molecule, 3-(4-(prop-2-yn-1-yloxy)phenyl)propionic acid at room temperature for 12 hours (Scheme 2). […] However, after attaching to the dendrimer, the absorbance of azidocoumarin has red-shifted 20 nm (λmax Ex 340 vs. 360 nm). Following ligation with the alkyne-derivatized molecule, the G5-Coumarin 3 increased its fluorescence 21-fold (FIG. 1). […] This difference in fluorescent enhancement was primarily attributable to the decrease in the background fluorescence intensity of azidocoumarin on the dendrimer reporter. The structure-property relationships are still under investigation.
Experimental Procedure of “Click-on and Probe” Reaction G5-coumarin 3 was dissolved in Cu(II) sulfate (10 mol % per COUlnarin, 1 mg/mL H20 solution) solution. 3-(4-(prop-2-yn-1-yloxy)phenyl)propanoic acid (5 per coumarin, 5 mg/mL DMSO solution) were added. The reaction mixture was incubated at room temperature for 12 h before diluted in H2O for fluorescent emission measurement. […] The excitation and emission spectra were recorded after dilution using H2O.

[2] = tested on: KB cells; assay: detection of EdU incorporated into newly synthesized DNA of KB cells by 'click' ligation and flow cytometry; format: cell-based
From the text: The efficacy of the fluorogenic reporters in monitoring metabolite flux in a typical cell culture system was next evaluated. 5-ethynyl-2′-deoxyuridine (EdU), a nucleoside analogue, incorporation into newly synthesized DNA (Scheme 2), a common molecular biology technique to profile cellular proliferation, was monitored (see, e.g., Hahn, C. G.; Han, L. Y.; Rawson, N. E.; Mirza, N.; Borgmann-Winter, K.; Lenox, R. H.; Arnold, S. E. J Comp Neurol 2005, 483, 154; Salic, A.; Mitchison, T. J. P Natl Acad Sci USA 2008, 105, 2415; Limsirichaikul, S.; Niimi, A.; Fawcett, H.; Lehmann, A.; Yamashita, S.; Ogi, T. Nucleic Acids Res 2009, 37; Yamakoshi, H.; Dodo, K.; Okada, M.; Ando, J.; Palonpon, A.; Fujita, K.; Kawata, S.; Sodeoka, M. J Am Chem Soc 2011, 133, 6102). Traditionally, 5-bromo-2′-deoxyuridine (BrdU), an antibody-specific nucleoside analogue, has been used to monitor DNA synthesis but is limited by the complicated processing and signal variability (see, e.g., Declercq, E.; Descamps, J.; Balzarini, J.; Giziewicz, J.; Barr, P. J.; Robins, M. J. J Med Chem 1983, 26, 661). EdU is a DNA base modified with a terminal alkyne group replacing the methyl group in the 5 position and is readily incorporated into newly synthesized DNA during cell proliferation. […] To compare the detection efficacy of the different fluorogenic reporters, the DNA-incorporated EdU molecules were ligated with either the small molecule 3-azido-7-hydroxy coumarin or the dendrimer-coumarin reporters (G5-Coumarin 3) using ‘click’ reactions and then analyzed by flow cytometry. […] Similar to other ‘click’ reaction detection methods with traditional azide fluorescent reporters, detection of EdU incorporation into DNA with the fluorogenic dendrimer reporters retain the accuracy of the traditional assays but reduces background fluorescence greatly improving assay throughput.
EdU Labeling and Staining of Cultured Cells. […] Fluorescence signal intensities from the samples were measured using an Accuri C6 Flow Cytometer (Ann Arbor, Mich.) and data were analyzed using FlowJo 8.7 software (TreeStar).

[N-]=[N+]=Nc1cc2ccc(O)cc2oc1=O [3-azido-7-hydroxy coumarin]
λmax Ex [1]: 340 nm
fluorescence intensity after standard wash steps ([2]; KB cells with EdU, after standard wash steps): decreased
cell positive rate before wash steps ([2]; KB cells with EdU, no washes): much higher degree of cell positive rate
fluorescent intensity after ligation with DNA-incorporated EdU ([2]; KB cells, 10 μM EdU for 5 hours, reporters at 10 nM and 100 nM): increases in fluorescent intensity
